Data: BigSolDB 2.1

CCCN(CCc1cccs1)[C@H]1CCc2c(O)cccc2C1
solubility (mole fraction)
Details | in ethanol | in ethyl acetate | in isopropanol | in isopropyl acetate | in methanol | in methyl acetate | in n-butanol | in n-butyl acetate | in n-propanol | in n-propyl acetate
278.15 K | 0.00236 | 0.0243 | 0.00273 | 0.0201 | 0.00131 | 0.0124 | 0.00758 | 0.0311 | 0.00555 | 0.0247
283.15 K | 0.00398 | 0.0303 | 0.00418 | 0.0257 | 0.00249 | 0.0167 | 0.0105 | 0.0368 | 0.00758 | 0.0305
288.15 K | 0.00677 | 0.0369 | 0.00598 | 0.0314 | 0.00379 | 0.0211 | 0.0129 | 0.0433 | 0.0103 | 0.0371
293.15 K | 0.00912 | 0.0437 | 0.00845 | 0.0381 | 0.00531 | 0.0262 | 0.0163 | 0.051 | 0.0138 | 0.0435
298.15 K | 0.012 | 0.0512 | 0.0105 | 0.046 | 0.00696 | 0.0323 | 0.0222 | 0.0597 | 0.0175 | 0.052
303.15 K | 0.0183 | 0.0601 | 0.0163 | 0.0553 | 0.0107 | 0.0393 | 0.0306 | 0.0688 | 0.0237 | 0.0612
308.15 K | 0.0239 | 0.0707 | 0.0219 | 0.0661 | 0.0161 | 0.0482 | 0.0387 | 0.08 | 0.0298 | 0.0716
313.15 K | 0.0345 | 0.0812 | 0.0311 | 0.0782 | 0.0248 | 0.0587 | 0.0467 | 0.0915 | 0.0399 | 0.0834
